According to patent publication US20030186424A1, “Reagents and methods for identifying and modulating expression of genes regulated by CDK inhibitors” (priority 2001, published 2003):

Legend:
CRD1 domain of p300 = test: CRD1 dependent stimulation of transcription (Gal4 p300 CRD1+ luciferase reporter); format: cell-based, human; settings: treatment of cells with the compound; data not shown
Procedure: Calcium phosphate transfections of U-2 OS cells were performed substantially as disclosed in Webster & Perkins (1999, Mol. Cell. Biol. 19: 3485-3495). Briefly, transfections were performed in 6 cm dishes using 2 μg of reporter plasmid, 1.6 μg of RSV p21 or RSV ADH control plasmid and 5 ng of Gal4 expression plasmid (except where indicated in the figure legend). Cells were harvested approximately 40 hours after transfection. Lysates were prepared using passive lysis buffer (Promega) and luciferase assays were performed according to manufacturer's instructions (Promega). All experiments were performed separately, a minimum of three times before calculating means and standard errors as shown in the Figures. Relative luciferase levels were calculated by referring to the level of activity seen with the Gal4 DNA-binding domain (amino acids 1-147) not fused to a heterologous activator, except when specifically referred to.
Wild type p21 and the two mutants were cotransfected with Gal4 p300^CRD+ (192-1044) and Gal4 E1B luciferase into U-2 OS cells. Both mutants stimulated transcriptional activity to the same extent as the wild type protein (FIG. 8B), consistent with a Cyclin/CDK independent role for p21 regulation of CRD1. […]

TBP + TFIIB complex = TBP + TFIIB complex (UniProt P20226;Q00403 P20226:1-339,Q00403:1-316); test: EMSA; no complex seen; 30 C, 4 mM MgCl2, 55 mM KCl; exact probe span not stated; settings: tags: gift from Stefan Roberts, University of Manchester; label: 32P
Source text: The sequence of the TATA box and surrounding sequences was known in the art to influence binding of basal transcription factors (Lieberman et al., 1997, Mol. Cell. Biol. 17: 6624-6632). Since the Bax TATA sequence differs considerably from AdML, these constructs were used to determine whether the observed structural differences would be associated with differential binding of the core transcription factors TBP (TATA binding protein) and TFIIB. In these experiments, purified recombinant TBP and TFIIB were therefore incubated with ³²P labeled probes containing the AdML and Bax TATA boxes and analyzed by electrophoretic mobility shift assay (EMSA), performed as follows. ³²P labeled probe DNA was incubated for 1 hr at 30° C. with ˜1 ng purified recombinant TBP, ˜2 ng purified recombinant TFIIB (both proteins gifts from Dr Stefan Roberts, University of Manchester), 5 μg BSA, 250 ng poly(dG.dC) competitor and 12 μL buffer (having a formula of 10 mM Hepes pH7.9, 0.2 mM EDTA, 55 mM KCl, 4 mM MgCl₂, 5 mM ammonium sulphate, 8% v/v glycerol, 2% v/v polyethylene glycol, 5 mM β-mercaptoethanol, and 0.2 mM PMSF). Samples were then resolved using a 4.8% acrylamide gel (in 0.5×TB buffer). The gel was then dried and exposed to film.

Sequence of TBP + TFIIB complex (P20226 whole entry, chain 1 of 2): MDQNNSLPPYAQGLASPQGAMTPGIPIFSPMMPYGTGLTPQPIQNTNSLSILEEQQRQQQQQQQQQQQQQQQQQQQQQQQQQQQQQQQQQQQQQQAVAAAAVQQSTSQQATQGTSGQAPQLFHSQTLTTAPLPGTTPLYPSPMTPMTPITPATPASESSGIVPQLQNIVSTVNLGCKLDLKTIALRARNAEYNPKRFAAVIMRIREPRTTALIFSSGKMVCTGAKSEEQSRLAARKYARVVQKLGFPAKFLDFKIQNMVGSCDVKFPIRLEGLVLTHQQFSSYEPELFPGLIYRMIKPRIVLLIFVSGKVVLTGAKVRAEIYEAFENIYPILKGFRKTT
Sequence of TBP + TFIIB complex (Q00403 whole entry, chain 2 of 2): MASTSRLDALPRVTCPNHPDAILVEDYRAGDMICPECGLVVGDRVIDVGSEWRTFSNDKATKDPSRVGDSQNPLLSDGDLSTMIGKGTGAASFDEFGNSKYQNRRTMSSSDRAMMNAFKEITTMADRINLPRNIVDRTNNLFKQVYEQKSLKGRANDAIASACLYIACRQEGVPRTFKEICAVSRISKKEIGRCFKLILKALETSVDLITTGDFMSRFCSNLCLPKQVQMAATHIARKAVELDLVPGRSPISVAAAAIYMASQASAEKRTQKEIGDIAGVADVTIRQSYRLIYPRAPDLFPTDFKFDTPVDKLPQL

Molecule | CRD1 dependent stimulation of transcription (CRD1 domain of p300) | binding result (TBP + TFIIB complex)
NC(Cn1ccc(=O)c(O)c1)C(=O)O (stereo not drawn) [mimosine] | does not result in CRD1 dependent stimulation of transcription | –
CC[C@H](CO)Nc1nc(NCc2ccccc2)c2ncn(C(C)C)c2n1 [roscovitine] | does not result in CRD1 dependent stimulation of transcription | –
Bax TATA box core promoter probe (dsDNA) DNA 1: ACTCAGTTTTTAGTCATCTATAACGTCCTGCCTGGAAGCATGCTATTTTGGGCCTCTGAGCTT DNA 2: AAGCTCAGAGGCCCAAAATAGCATGCTTCCAGGCAGGACGTTATAGATGACTAAAAACTGAGT | – | no binding
